Experiments:
[1] = target: T1, human DHODH (Homo sapiens, UniProt Q02127); assay: DHODH Enzymatic Assay; type: biochemical; settings: purified human DHODH; DCIP absorbance, end-point mode
T1 construct: purchased Proteros PR-0044
How it was run: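 Purified human DHODH activity read as absorbance of DCIP, the terminal electron acceptor, in […] pH 7.5, 150 mM NaCl, 0.5 mM EDTA, 0.1% Triton X-100. Reaction started with a substrate mix of 20 mM DHO, 5 mM CoQ6 and 1 mM DCIP in assay buffer.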

[2] = system: MOLM-13 cells; assay: MOLM-13 Cellular Assay; type: cell-based; settings: Homo sapiens, 72 hours exposure, cell viability by CellTiter-Glo
Experimental: The day prior to assay set-up, cells were pelleted, resuspended in fresh media, counted, and cells were plated at 0.4×10^6 cell/mL in a T150 flask. […] Cells were exposed to different concentrations of test compounds at 37° C., 5% CO2 for 72 hours immediately after seeding.

T1 sequence (Q02127 whole entry): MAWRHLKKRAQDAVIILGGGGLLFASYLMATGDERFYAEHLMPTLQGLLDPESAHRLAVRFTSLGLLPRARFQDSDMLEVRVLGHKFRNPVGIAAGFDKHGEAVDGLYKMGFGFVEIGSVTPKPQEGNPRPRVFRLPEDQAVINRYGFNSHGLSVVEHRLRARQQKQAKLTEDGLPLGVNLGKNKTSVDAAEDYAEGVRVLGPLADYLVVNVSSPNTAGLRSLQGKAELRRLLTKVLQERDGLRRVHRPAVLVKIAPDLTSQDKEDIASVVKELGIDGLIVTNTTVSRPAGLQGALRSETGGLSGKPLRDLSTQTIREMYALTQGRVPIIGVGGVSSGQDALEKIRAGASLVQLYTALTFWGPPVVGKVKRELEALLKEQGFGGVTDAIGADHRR

SMILES	EC50 [1] [nM]	EC50 [2] [nM]
CCn1c(CO)nn(-c2nc(O[C@@H](C)C(F)(F)F)c(C(=O)Nc3c(C)nn(C)c3C)cc2F)c1=O [Example 55, (S)-6-(4-Ethyl-3-(hydroxymethyl)-5-oxo-4,5-dihydro-1H-1,2,4-triazol-1-yl)-5-fluoro-2-((1,1,1-trifluoropropan-2-yl)oxy)-N-(1,3,5-trimethyl-1H-pyrazol-4-yl)nicotinamide]	17.3	> 100
CCn1c(CO)nn(-c2nc(O[C@@H](C)C(F)(F)F)c(C(=O)Nc3nc(OC)ccc3F)cc2F)c1=O [Example 56, (S)-6-(4-Ethyl-3-(hydroxymethyl)-5-oxo-4,5-dihydro-1H-1,2,4-triazol-1-yl)-5-fluoro-N-(3-fluoro-6-methoxypyridin-2-yl)-2-((1,1,1-trifluoropropan-2-yl)oxy)nicotinamide]	4.6	5.2
CCn1c(CO)nn(-c2nc(O[C@@H](C)C(F)(F)F)c(C(=O)Nc3c[nH]nc3C)cc2F)c1=O [Example 57, (S)-6-(4-Ethyl-3-(hydroxymethyl)-5-oxo-4,5-dihydro-1H-1,2,4-triazol-1-yl)-5-fluoro-N-(3-methyl-1H-pyrazol-4-yl)-2-((1,1,1-trifluoropropan-2-yl)oxy)nicotinamide]	1.7	20.2
CCn1c(CO)nn(-c2nc(O[C@@H](C)C(F)(F)F)c(C(=O)Nc3c[nH]nc3OC)cc2F)c1=O [Example 58, (S)-6-(4-Ethyl-3-(hydroxymethyl)-5-oxo-4,5-dihydro-1H-1,2,4-triazol-1-yl)-5-fluoro-N-(3-methoxy-1H-pyrazol-4-yl)-2-((1,1,1-trifluoropropan-2-yl)oxy)nicotinamide]	5.8	23.2
CCn1c(CO)nn(-c2nc(O[C@@H](C)C(F)(F)F)c(C(=O)Nc3cc(C(C)C)nn3C)cc2F)c1=O [Example 59, (S)-6-(4-Ethyl-3-(hydroxymethyl)-5-oxo-4,5-dihydro-1H-1,2,4-triazol-1-yl)-5-fluoro-N-(3-isopropyl-1-methyl-1H-pyrazol-5-yl)-2-((1,1,1-trifluoropropan-2-yl)oxy)nicotinamide]	98.1	> 100
CCn1c(CO)nn(-c2nc(O[C@@H](C)C(F)(F)F)c(C(=O)Nc3ncnc(C)c3Cl)cc2F)c1=O [Example 60, (S)-N-(5-Chloro-6-methylpyrimidin-4-yl)-6-(4-ethyl-3-(hydroxymethyl)-5-oxo-4,5-dihydro-1H-1,2,4-triazol-1-yl)-5-fluoro-2-((1,1,1-trifluoropropan-2-yl)oxy)nicotinamide]	254	> 100
CCn1c(CO)nn(-c2nc(O[C@@H](C)C(F)(F)F)c(C(=O)Nc3cn(C)nc3COC)cc2F)c1=O [Example 61, (S)-6-(4-Ethyl-3-(hydroxymethyl)-5-oxo-4,5-dihydro-1H-1,2,4-triazol-1-yl)-5-fluoro-N-(3-(methoxymethyl)-1-methyl-1H-pyrazol-4-yl)-2-((1,1,1-trifluoropropan-2-yl)oxy)nicotinamide]	365	> 100
CCn1c(CO)nn(-c2nc(O[C@@H](C)C(F)(F)F)c(C(=O)Nc3c[nH]nc3C3CC3)cc2F)c1=O [Example 62, (S)-N-(3-Cyclopropyl-1H-pyrazol-4-yl)-6-(4-ethyl-3-(hydroxymethyl)-5-oxo-4,5-dihydro-1H-1,2,4-triazol-1-yl)-5-fluoro-2-((1,1,1-trifluoropropan-2-yl)oxy)nicotinamide]	2.7	8.5
CCn1c(CO)nn(-c2nc(O[C@@H](C)C(F)(F)F)c(C(=O)Nc3cnn(CCOC)c3)cc2F)c1=O [Example 63, (S)-6-(4-Ethyl-3-(hydroxymethyl)-5-oxo-4,5-dihydro-1H-1,2,4-triazol-1-yl)-5-fluoro-N-(1-(2-methoxyethyl)-1H-pyrazol-4-yl)-2-((1,1,1-trifluoropropan-2-yl)oxy)nicotinamide]	865	> 100
CCn1c(CO)nn(-c2nc(O[C@@H](C)C(F)(F)F)c(C(=O)Nc3c(Cl)ccc(=O)n3C)cc2F)c1=O [Example 64, (S)-N-(3-Chloro-1-methyl-6-oxo-1,6-dihydropyridin-2-yl)-6-(4-ethyl-3-(hydroxymethyl)-5-oxo-4,5-dihydro-1H-1,2,4-triazol-1-yl)-5-fluoro-2-((1,1,1-trifluoropropan-2-yl)oxy)nicotinamide]	101	> 100
CCn1c(CO)nn(-c2nc(O[C@@H](C)C(F)(F)F)c(C(=O)Nc3cc(OC)ncc3F)cc2F)c1=O [Example 65, (S)-6-(4-Ethyl-3-(hydroxymethyl)-5-oxo-4,5-dihydro-1H-1,2,4-triazol-1-yl)-5-fluoro-N-(5-fluoro-2-methoxypyridin-4-yl)-2-((1,1,1-trifluoropropan-2-yl)oxy)nicotinamide]	202	> 100
CCn1c(CO)nn(-c2nc(O[C@@H](C)C(F)(F)F)c(C(=O)Nc3cc(OC)ncc3C)cc2F)c1=O [Example 66, (S)-6-(4-ethyl-3-(hydroxymethyl)-5-oxo-4,5-dihydro-1H-1,2,4-triazol-1-yl)-5-fluoro-N-(2-methoxy-5-methylpyridin-4-yl)-2-((1,1,1-trifluoropropan-2-yl)oxy)nicotinamide]	9.9	19.9
CCn1c(CO)nn(-c2nc(O[C@@H](C)C(F)(F)F)c(C(=O)Nc3cc(C)cnc3Cl)cc2F)c1=O [Example 67, (S)-N-(2-Chloro-5-methylpyridin-3-yl)-6-(4-ethyl-3-(hydroxymethyl)-5-oxo-4,5-dihydro-1H-1,2,4-triazol-1-yl)-5-fluoro-2-((1,1,1-trifluoropropan-2-yl)oxy)nicotinamide]	5.7	46.5
CCn1c(CO)nn(-c2nc(O[C@@H](C)C(F)(F)F)c(C(=O)Nc3c(C)ccnc3OC)cc2F)c1=O [Example 68, (S)-6-(4-Ethyl-3-(hydroxymethyl)-5-oxo-4,5-dihydro-1H-1,2,4-triazol-1-yl)-5-fluoro-N-(2-methoxy-4-methylpyridin-3-yl)-2-((1,1,1-trifluoropropan-2-yl)oxy)nicotinamide]	0.87	0.886
CCn1c(CO)nn(-c2nc(O[C@@H](C)C(F)(F)F)c(C(=O)Nc3c(Cl)ccnc3Cl)cc2F)c1=O [Example 69, (S)-N-(2,4-Dichloropyridin-3-yl)-6-(4-ethyl-3-(hydroxymethyl)-5-oxo-4,5-dihydro-1H-1,2,4-triazol-1-yl)-5-fluoro-2-((1,1,1-trifluoropropan-2-yl)oxy)nicotinamide]	0.611	0.673
CCOc1ncc(F)c(NC(=O)c2cc(F)c(-n3nc(CO)n(CC)c3=O)nc2O[C@@H](C)C(F)(F)F)n1 [Example 70, (S)-N-(2-Ethoxy-5-fluoropyrimidin-4-yl)-6-(4-ethyl-3-(hydroxymethyl)-5-oxo-4,5-dihydro-1H-1,2,4-triazol-1-yl)-5-fluoro-2-((1,1,1-trifluoropropan-2-yl)oxy)nicotinamide]	489	> 100
CCn1c(CO)nn(-c2nc(O[C@@H](C)C(F)(F)F)c(C(=O)Nc3c(C)cncc3F)cc2F)c1=O [Example 71, (S)-6-(4-Ethyl-3-(hydroxymethyl)-5-oxo-4,5-dihydro-1H-1,2,4-triazol-1-yl)-5-fluoro-N-(3-fluoro-5-methylpyridin-4-yl)-2-((1,1,1-trifluoropropan-2-yl)oxy)nicotinamide]	5.6	21.1
CCn1c(CO)nn(-c2nc(O[C@@H](C)C(F)(F)F)c(C(=O)Nc3c(C)cc(C)nc3Cl)cc2F)c1=O [Example 72, (S)-N-(2-Chloro-4,6-dimethylpyridin-3-yl)-6-(4-ethyl-3-(hydroxymethyl)-5-oxo-4,5-dihydro-1H-1,2,4-triazol-1-yl)-5-fluoro-2-((1,1,1-trifluoropropan-2-yl)oxy)nicotinamide]	0.895	1.4
CCn1c(CO)nn(-c2nc(O[C@@H](C)C(F)(F)F)c(C(=O)Nc3nccn3C3CC3)cc2F)c1=O [Example 73, (S)-N-(1-Cyclopropyl-1H-imidazol-2-yl)-6-(4-ethyl-3-(hydroxymethyl)-5-oxo-4,5-dihydro-1H-1,2,4-triazol-1-yl)-5-fluoro-2-((1,1,1-trifluoropropan-2-yl)oxy)nicotinamide]	95.2	> 100
CCn1c(CO)nn(-c2nc(O[C@@H](C)C(F)(F)F)c(C(=O)Nc3cc(C#N)ccc3Cl)cc2F)c1=O [Example 74, (S)-N-(2-Chloro-5-cyanophenyl)-6-(4-ethyl-3-(hydroxymethyl)-5-oxo-4,5-dihydro-1H-1,2,4-triazol-1-yl)-5-fluoro-2-((1,1,1-trifluoropropan-2-yl)oxy)nicotinamide]	1.7	13
CCn1c(CO)nn(-c2nc(O[C@@H](C)C(F)(F)F)c(C(=O)Nc3cc(C#N)cnc3Cl)cc2F)c1=O [Example 75, (S)-N-(2-Chloro-5-cyanopyridin-3-yl)-6-(4-ethyl-3-(hydroxymethyl)-5-oxo-4,5-dihydro-1H-1,2,4-triazol-1-yl)-5-fluoro-2-((1,1,1-trifluoropropan-2-yl)oxy)nicotinamide]	19.2	> 100
CCn1c(CO)nn(-c2nc(O[C@@H](C)C(F)(F)F)c(C(=O)Nc3c(N(C)C)ccnc3OC)cc2F)c1=O [Example 76, (S)-N-(4-(Dimethylamino)-2-methoxypyridin-3-yl)-6-(4-ethyl-3-(hydroxymethyl)-5-oxo-4,5-dihydro-1H-1,2,4-triazol-1-yl)-5-fluoro-2-((1,1,1-trifluoropropan-2-yl)oxy)nicotinamide]	3.6	27.9
